The target of one assay is T1, E.faecalis PheRS (Enterococcus faecalis, UniProt Q836J6).
T1 sequence (Q836J6 1-348): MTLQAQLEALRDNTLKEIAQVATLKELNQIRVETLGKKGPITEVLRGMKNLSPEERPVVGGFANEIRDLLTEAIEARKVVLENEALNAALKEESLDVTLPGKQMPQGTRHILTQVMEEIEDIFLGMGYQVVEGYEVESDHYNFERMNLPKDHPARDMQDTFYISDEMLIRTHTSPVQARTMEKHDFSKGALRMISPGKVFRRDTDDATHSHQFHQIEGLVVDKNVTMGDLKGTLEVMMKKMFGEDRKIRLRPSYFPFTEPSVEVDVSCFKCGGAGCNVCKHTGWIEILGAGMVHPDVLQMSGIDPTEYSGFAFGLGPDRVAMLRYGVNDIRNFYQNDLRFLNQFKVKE
T1 sequence (Q836J5 1-807 partner): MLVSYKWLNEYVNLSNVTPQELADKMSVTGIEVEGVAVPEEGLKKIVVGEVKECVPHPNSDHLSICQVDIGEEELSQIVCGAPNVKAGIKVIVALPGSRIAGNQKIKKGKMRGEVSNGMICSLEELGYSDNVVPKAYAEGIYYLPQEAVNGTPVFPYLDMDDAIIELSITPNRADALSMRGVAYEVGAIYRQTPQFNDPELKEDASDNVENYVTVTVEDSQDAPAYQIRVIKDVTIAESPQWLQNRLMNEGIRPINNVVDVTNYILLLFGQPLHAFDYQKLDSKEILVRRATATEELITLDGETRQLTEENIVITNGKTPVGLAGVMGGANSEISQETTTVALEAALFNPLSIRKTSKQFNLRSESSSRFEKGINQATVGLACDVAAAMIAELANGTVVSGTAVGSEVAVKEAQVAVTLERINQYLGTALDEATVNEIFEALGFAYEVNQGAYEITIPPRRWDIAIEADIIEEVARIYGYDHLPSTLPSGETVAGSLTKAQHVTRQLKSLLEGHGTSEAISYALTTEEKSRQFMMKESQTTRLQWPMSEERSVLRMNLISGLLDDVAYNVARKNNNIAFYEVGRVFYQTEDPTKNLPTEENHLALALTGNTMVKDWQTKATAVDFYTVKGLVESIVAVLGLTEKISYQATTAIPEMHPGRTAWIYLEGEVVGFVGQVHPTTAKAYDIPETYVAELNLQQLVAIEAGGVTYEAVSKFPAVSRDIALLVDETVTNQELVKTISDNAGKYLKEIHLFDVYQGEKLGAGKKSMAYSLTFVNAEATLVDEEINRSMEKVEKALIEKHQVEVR
Description: aaRS charging and trichloroacetic acid precipitation assay, IC50 determination. In kind it is biochemical. The note with it: 20 min preincubation at 25 C; Km concentrations of substrates; stereoisomers tested separately. The protocol:
IC50 determinations for the aminoacyl-tRNA synthetases (aaRS) isolated from pathogen or HeLa cells were carried out using a modification of the aaRS charging and trichloroacetic acid precipitation assay described previously (see examples: D. Kern et. al., Biochemie, 61, 1257-1272 (1979) and J. Gilbart et. al. Antimicrobial Agents and Chemotherapy, 37(1), 32-38 (1993)). The aaRS enzymes were prepared via standard cloning and expression methods and partially purified or partially purified from pathogen and HeLa cell extracts. The activity of each aaRS enzyme was standardized as trichloroacetic acid precipitable counts (cpm) obtained at 10 minutes reaction time at Km concentrations of substrates. For practical purposes, the minimal acceptable value is approximately 2000 cpm per 10 minute reaction.
Test compounds were typically present as serial dilutions in concentration ranges of 0.35 nM to 35 μM. Test compound solutions were prepared by dissolving test compound in 100% dimethyl sulfoxide and diluting to the final concentration with 50 mM HEPES, pH 7.5. IC50 determinations were typically performed in duplicate with each experiment containing 4-8 concentrations of inhibitor along with two no inhibitor controls.
IC50 incubations were initiated by supplementing the preincubation mixture to a final assay concentration of 10 mM MgCl2, 30 mM KCl, 10 mM KF, 50 mM HEPES (pH 7.5), […], 2-20 μM [^3 H] amino acid, and 90-180 μM crude tRNA in a final volume of 35 microliters. The reaction was incubated at 25° C. for 5-20 minutes. At specified time points a 15 microliter aliquot was removed and added to a well of a Millipore filtration plate (Multiscreen-FB, MAFB NOB 10) containing 100 microliters of cold 5% (wt/vol) trichloroacetic acid. Trichloroacetic acid precipitable material was collected by filtration on Millipore Multiscreen filtration station, washed twice with cold 5% trichloroacetic acid, twice with water, and dried. Plates were typically allowed to air dry for several hours or they were baked at 50° C. in a vacuum oven for 30 minutes. The radioactivity on the dried plates was quantitated by the addition of Packard Microscint-20 to the wells and counting with a Packard TopCount scintillation counter.
Inhibitor activity was typically reported as a percentage of the control aaRS activity. The IC50 value was determined by plotting per cent activity versus compound concentration in the assay and identifying the concentration at which 50% of the activity was remaining.
Stereoisomers are tested separately and referred to by the suffix a-d.

The test system of the next assay is S.aureus. The assay can be described thus: Whole cell antimicrobial screen (MIC, NCCLS microdilution). The class given is cell-based. The note with it: for MIC: Staphylococcus aureus. The protocol: Compounds were tested for antimicrobial activity against a panel of organisms according to standard procedures described by the National Committee for Clinical Laboratory Standards (NCCLS document M7-A3, Vol. 13, No. 25, 1993/NCCLS document M27-P, Vol. 12, No. 25, 1992). Compounds were dissolved in 100% DMSO and were diluted to the final reaction concentration (0.1 μg/ml-500 μg/ml) in microbial growth media. In all cases the final concentration of DMSO incubated with cells is less than or equal to 1%. For minimum inhibitory concentration (MIC) calculations, 2-fold dilutions of compounds were added to wells of a microtiter plate containing 5×10^4 bacteria or fungal cells in a final volume of 200 lambda of an appropriate media (Mueller-Hinton Broth; Haemophilus Test Media; Mueller-Hinton Broth+5% Sheep Blood; or […]). Plates were incubated overnight at an appropriate temperature (30° C.-37° C.) and optical densities (measure of cell growth) were measured using a commercial plate reader. The MIC value is defmed as the lowest compound concentration inhibiting growth of the test organism.
Background: Broth dilution looks for growth in wells or tubes with falling amounts of substance.

Where [1] appears, read: 2-fold dilutions, overnight incubation, optical density readout.
Setting [2] is: 2-fold dilutions, overnight incubation, optical density readout, read-out: MIC S.aureus.

pIC50: −log10 of the molar value. ≈ marks a conversion by molar mass, not a printed value. Where two headings read alike, the source gives them in different places. Where only a bound is given, the exact number is not on record here.

From patent US6153645A, “Heterocycles as antimicrobial agents” (Cubist Pharmaceuticals, Inc., priority 1999, dated 2000) come the findings set out here.

For `O=C(Nc1ccc(Cl)c(Cl)c1)C1C(c2ccccc2)OC23C(O)c4ccccc4C2OC(=O)C13` (single isomer, unassigned) [Example 1a], the pIC50 (in general, the IC50 on a negative log10 scale, so that one unit is a factor of ten) at E.faecalis PheRS was 6.77. For the same compound, the “MIC S.aureus” value against S.aureus (setting [1]) stood at 3.1 µg/mL (≈ 6.25 µM). For `O=C(Nc1ccc(Cl)c(Cl)c1)C1C(c2ccccc2)OC23C(O)c4ccccc4C2OC(=O)C13` (single isomer, unassigned) [Example 1b] the same measures were 6.33 and 6.25 µg/mL (≈ 12.6 µM). Compound `O=C(Nc1ccc(Cl)c(Cl)c1)C1C(c2ccccc2)NC23C(O)c4ccccc4C2OC(=O)C13` (single isomer, unassigned) [Example 3b] had a pIC50 on E.faecalis PheRS of 5.37. Further, the MIC in the assay on S.aureus (setting [2]) turned out to be 25 µg/mL (≈ 50.5 µM). The compound `O=C(Nc1ccc(Cl)c(Cl)c1)C1C(c2ccccc2)NC23C(O)c4ccccc4C2OC(=O)C13` (single isomer, unassigned) [Example 3c] had a pIC50 against E.faecalis PheRS of 6.40. For the same compound, in the assay with S.aureus (setting [1]), the “MIC S.aureus” value is 12.5 µg/mL (≈ 25.2 µM). Regarding `O=C(Nc1ccc(Cl)c(Cl)c1)C1C(c2ccccc2)OC23C(=O)c4ccccc4C2OC(=O)C13` (centres unmarked) [Example 2], the pIC50 against E.faecalis PheRS was 5.51. Besides, the MIC in the assay on S.aureus (setting [2]) was more than 100 µg/mL. Turning to `Cc1ccc(NC(=O)C2C(c3ccccc3)OC34C(O)c5ccccc5C3OC(=O)C24)cc1Cl` (centres unmarked) [Example 4a], on E.faecalis PheRS, the pIC50 is 5.83. Further, the “MIC S.aureus” value in the assay with S.aureus (setting [1]) is more than 100 µg/mL. In turn, `Cc1ccc(NC(=O)C2C(c3ccccc3)OC34C(O)c5ccccc5C3OC(=O)C24)cc1Cl` (centres unmarked) [Example 4b] gave a pIC50 at E.faecalis PheRS of 5.08. Further, the “MIC S.aureus” value against S.aureus (setting [1]) was more than 100 µg/mL. For `Cc1ccc(NC(=O)C2C(c3ccccc3)OC34C(O)c5ccccc5C3OC(=O)C24)cc1Cl` (centres unmarked) [Example 4c], at E.faecalis PheRS, the pIC50 was 4.48. Further, in the assay on S.aureus (setting [1]), the “MIC S.aureus” value worked out at 25 µg/mL (≈ 52.5 µM). With `O=C(Nc1ccc(Cl)c(Cl)c1)C1C(c2ccccc2)OC23C(=NO)c4ccccc4C2OC(=O)C13` (centres unmarked) [Example 5], the MIC with S.aureus (read-out: MIC S.aureus, 2-fold dilutions, overnight incubation, optical density readout) is less than 100 µg/mL.
